Results from patent US11801242B2, “Compositions and methods for adjuvant cancer therapeutics” (DUKE UNIVERSITY, priority 2018, dated 2023).

How the values were obtained:
[1] = molecular target: T1, chimeric FLAG-tagged POL κ RIR-REV1 CTD (Mus musculus, UniProt Q920Q2); assay: In vitro DSS-crosslinking, Western blot; details: 100 μM RE01 NaOH salt
T1 construct: the mouse REV1 CTD (F1150-T1249); His10-GB1 (TEV site) (N, cleaved yes); made in house; host or cells: E. coli BL21 Star (DE3)
T1 sequence (Q920Q2 1150-1249): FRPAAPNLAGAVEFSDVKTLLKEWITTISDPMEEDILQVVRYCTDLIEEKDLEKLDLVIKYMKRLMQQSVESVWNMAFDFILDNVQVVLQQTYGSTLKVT
Method: Samples of the chimeric FLAG-tagged POL κ RIR-REV1 CTD in the presence of 0 μM or 100 μM RE01 were treated with increasing molar ratios of DSS (disuccinimidyl suberate) and analyzed by SDS-PAGE followed by Western blotting with anti-FLAG antibody. Monomer and crosslinked dimer bands are labeled.
More specifically, chimeric FLAG-tagged POL κ RIR-REV1 CTD in a buffer containing 25 mM HEPES (pH 7.0), 100 mM KCl, and 4 mM TCEP was mixed with either MPD (control) or RE01 NaOH salt in MPD to yield a reaction solution containing 1 μM protein, 5% MPD, and either 0 or 100 μM compound. Appropriate dilutions of DSS in DMSO were added to the reaction mixture to yield DSS-to-protein molar ratios of 0:1, 0.5:1, 1:1, 5:1, 10:1, and 50:1 and a final DMSO concentration of 5% (v/v). The reaction mixture was incubated for 30 min at room temperature and then quenched by addition of 1 M Tris (pH 8.5). The SDS-loading dye containing 4 mM TCEP and 10.8 mM iodoacetamide (to block free cysteines) was added to each reaction mixture, and the samples were loaded onto a Pre-cast 4-20% gradient SDS-PAGE gel (Bio-Rad). The gel samples were transferred to a 0.45 μm nitrocellulose membrane (Bio-Rad) for Western blotting with the anti-FLAG primary antibody M2 (Sigma-Aldrich) and the HRP-conjugated secondary antibody (LI-COR) and imaging with the LI-COR Odyssey system.

Rev1^+/+ MEF cells [2] = assay: Clonogenic survival assay; assay type: cell-based, mouse; details: RE01 1.5 μM + cisplatin 0.5 μM vs cisplatin alone
Method: (§1) 300 cells were plated in triplicate in 6-well plates for 24 hours. Cisplatin (cis-diammineplatinum(II) dichloride, Sigma-Aldrich) was added to relevant wells for 24 hours. All plates were incubated at 37° C. for 24 hours. Media were changed the next day and in fresh media RE01 (at 1.5 μM concentration) was added to untreated or cisplatin-treated cells for another 24 hours. Media were changed at the end of these combination treatments, and cells were allowed to recover for 7 days. To stain the resulting colonies, media were aspirated and the fixative (50% methanol and 10% glacial acetic acid) was added for 10 minutes, followed by the addition of 0.02% Coomassie brilliant blue R-250 stain (ThermoFisher) in methanol: acetic acid: water in a ratio of 46.5:7:46.5 (v/v/v). Colonies that stained blue and contained at least 40 cells were counted. Relative cell survival or colony formation was calculated by dividing colony counts from treated samples by the DMSO or untreated controls.

A375 cells [3] = assay: qRT-PCR of p21 mRNA; assay type: cell-based, human; details: combination RE01 1.5 μM and cisplatin 1 μM
Method: Total RNA was isolated by using the RNeasy Mini kit (Qiagen) from cells treated with RE01 (1.5 μM), cisplatin (1 μM) and a combination of both RE01 (1.5 μM) and cisplatin (1 μM). 5 ng of RNA from each sample was mixed with 10 μl of Applied Biosystems™ PowerUp™ SYBR™ Green Master Mix (ThermoFisher), 1 μl of MultiScribe™ Reverse Transcriptase (ThermoFisher), 0.1 μl of RNaseOUT™ Recombinant Ribonuclease Inhibitor and 5.9 μl of RNase-free water, and run in a one-step qRT-PCR reaction. Each reaction was run in triplicate. Primers used were: p21 F 5′-[…]-3′ (SEQ ID NO: 9), p21 R 5-CGGCGTTTGGAGTGG TAGAAA-3′ (SEQ ID NO: 10); GAPDH F 5′-[…]-3′ (SEQ ID NO: 11), GAPDH R 5′-[…]-3′ (SEQ ID NO: 12).

Rev1^−/− MEF cells = assay: Clonogenic survival assay; assay type: cell-based, mouse
Method: as §1
(§2) REV1 was knocked down by transiently transfecting SMARTpool: ON-TARGETplus REV1 siRNA by nucleofection. The siRNA was mixed with the nucleofection buffer Mouse/Rat Hepatocyte Nucleofector™ Kit (Lonza) and electroporated using the Nucleofector™ 2b device. Full-length mouse Rev1 on the pC3 plasmid (Clontech) was nucleofected using the same buffers and device into Rev1^−/− cells to complement the REV1 function.

Rev1^+/+ MEF cells [4] = assay: HPRT mutagenesis assay; assay type: cell-based, mouse; details: RE01 1.5 μM, cisplatin 0.5 μM
Method: (§3) For the hypoxanthine-guanine phosphoribosyl transferase (HPRT) mutagenesis assay, cells were first grown in HAT (complete media with 100 μM Hypoxanthine, 0.4 μM Aminopterin and 16 μM Thymidine) media (ThermoFisher) for 14 days to weed out any spontaneous HPRT mutants. After HAT selection, cells were exposed to cisplatin at the 0.5 μM concentration for 24 hours. Then, in fresh media, RE01 at a concentration of 1.5 μM was added to cells. After 24 hours of drug treatment, cells were trypsinized and washed with PBS. While 200-600 cells were plated in complete media in triplicates in 6-well plates to determine clonal efficiency, the rest of the cells were plated in complete media to allow the expression of the phenotype for 8 days. Then, 500,000 cells per treatment were plated in sextuplicate in 10 cm dishes in 6-TG media to allow the proliferation of mutated HPRT^− cells. Colonies were fixed (50% methanol and 10% glacial acetic acid), stained (0.02% Coomassie brilliant blue R-250 stain in methanol: acetic acid: water in a ratio of 46.5:7:46.5 (v/v/v)), and counted after 14-20 days. The HPRT mutation frequency was calculated as the ratio of the number of HPRT^− colonies in 6-TG media to the number of surviving colonies plated in complete media to determine clonal efficiency.

HT1080 cells [5] = assay: HPRT mutagenesis assay; assay type: cell-based, human; details: RE01 1.5 μM, cisplatin 0.5 μM
Method: as §3

HT1080 cells [6] = assay: Clonogenic survival after siRNA knock-down of REV1; assay type: cell-based, human; details: RE01 1.5 μM, cisplatin 1 μM
Method: as §1, §2

A375 cells [7] = assay: Clonogenic survival after siRNA knock-down of REV1; assay type: cell-based, human; details: RE01 1.5 μM, cisplatin 1 μM
Method: as §1, §2

dimerization of the REV1 CTD in solution [1]: promotes the dimerization
SMILES: CC(C)CC(=O)c1c(Nc2ccc(Cl)cc2Cl)[nH]c2c(Cl)ccc([N+](=O)[O-])c2c1=O [RE01, 8-chloro-2-((2,4-dichlorophenyl)amino)-3-(3-methylbutanoyl)-5-nitroquinolin-4(1H)-one]
colony forming ability (Rev1^+/+ MEF cells [2]): significantly reduced
levels of the p21 biomarker (A375 cells [3]): elevated levels
colony forming ability (Rev1^−/− MEF cells; RE01 1.5 μM + cisplatin 0.5 μM vs cisplatin alone): but not in Rev1^−/− MEF cells
RE01 mediated sensitization to cisplatin (Rev1^−/− MEF cells; cells complemented with plasmid encoding REV1, RE01 1.5 μM, cisplatin 1 μM): fully restored
spontaneous or cisplatin-induced HPRT mutation rates (Rev1^+/+ MEF cells [4]): significantly reduced
frequency of spontaneous and cisplatin-induced HPRT mutations (HT1080 cells [5]): decreased
RE01 mediated sensitization to cisplatin (HT1080 cells [6]): abolished
RE01 mediated sensitization to cisplatin (A375 cells [7]): abolished
